Assays:
[1] = target: T1, Neuropeptide Y receptor type 1 (Homo sapiens, UniProt P25929); assay: Displacement of [3H]UR-MK114 from human neuropeptide Y receptor type 1 expressed in human MCF7 cells; assay type: cell-based
T1 sequence (P25929 whole entry): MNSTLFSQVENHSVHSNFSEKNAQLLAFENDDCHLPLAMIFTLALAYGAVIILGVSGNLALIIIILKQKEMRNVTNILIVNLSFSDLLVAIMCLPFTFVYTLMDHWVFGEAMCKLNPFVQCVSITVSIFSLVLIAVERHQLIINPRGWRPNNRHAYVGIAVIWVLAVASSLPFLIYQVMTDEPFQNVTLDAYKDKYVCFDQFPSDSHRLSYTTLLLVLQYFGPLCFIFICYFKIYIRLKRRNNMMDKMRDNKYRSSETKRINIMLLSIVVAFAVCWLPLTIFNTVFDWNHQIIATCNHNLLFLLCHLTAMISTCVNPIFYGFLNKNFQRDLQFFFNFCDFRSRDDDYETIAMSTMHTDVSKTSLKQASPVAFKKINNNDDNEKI

[2] = target: T2, Neuropeptide Y receptor type 4 (Homo sapiens, UniProt P50391); assay: Antagonist activity at human neuropeptide Y receptor type 4 expressed in CHO cells co-expressing Gqi5-mtAEQ assessed as inhibition of hPP-induced calcium mobilization by Aequorin assay; assay type: functional, cell-based
T2 sequence (P50391 whole entry): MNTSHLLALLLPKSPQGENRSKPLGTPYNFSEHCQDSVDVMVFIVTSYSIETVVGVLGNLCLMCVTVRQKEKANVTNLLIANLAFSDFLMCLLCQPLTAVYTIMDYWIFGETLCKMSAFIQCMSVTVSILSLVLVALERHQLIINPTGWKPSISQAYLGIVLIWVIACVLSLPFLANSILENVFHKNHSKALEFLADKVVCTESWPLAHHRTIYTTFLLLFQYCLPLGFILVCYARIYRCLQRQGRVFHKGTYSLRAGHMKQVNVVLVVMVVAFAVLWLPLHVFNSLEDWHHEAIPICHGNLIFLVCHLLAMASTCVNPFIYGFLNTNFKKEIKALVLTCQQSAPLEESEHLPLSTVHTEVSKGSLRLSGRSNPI

[3] = target: T3, Neuropeptide Y receptor type 5 (Homo sapiens, UniProt Q15761); assay: Binding affinity to human neuropeptide Y receptor type 5 receptor expressed in HEC-1B cells using Cy5-pNPY by flow cytometric analysis; assay type: cell-based
T3 sequence (Q15761 whole entry): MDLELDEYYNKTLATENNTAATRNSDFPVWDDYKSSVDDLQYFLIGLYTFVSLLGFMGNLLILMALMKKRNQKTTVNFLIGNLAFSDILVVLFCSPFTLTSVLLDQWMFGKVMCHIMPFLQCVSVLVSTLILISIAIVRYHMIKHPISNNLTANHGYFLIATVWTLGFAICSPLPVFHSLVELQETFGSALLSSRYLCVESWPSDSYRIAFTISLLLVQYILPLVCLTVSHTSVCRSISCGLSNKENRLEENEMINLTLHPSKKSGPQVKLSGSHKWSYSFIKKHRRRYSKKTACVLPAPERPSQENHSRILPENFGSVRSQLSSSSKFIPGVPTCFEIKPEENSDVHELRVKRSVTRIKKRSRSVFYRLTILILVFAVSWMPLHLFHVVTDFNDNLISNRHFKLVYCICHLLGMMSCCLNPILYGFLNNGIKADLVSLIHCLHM

[4] = target: T2, Neuropeptide Y receptor type 4; assay: Binding affinity to human neuropeptide Y receptor type 4 receptor expressed in CHO cells using Cy5-[K4]-hPP by flow cytometric analysis; assay type: cell-based
[5] = target: T1, Neuropeptide Y receptor type 1; assay: Displacement of [3H]UR-MK114 from human neuropeptide Y receptor type 1 expressed in human SK-N-MC cells; assay type: cell-based
[6] = target: T4, Neuropeptide Y receptor type 2 (Homo sapiens, UniProt P49146); assay: Binding affinity to human neuropeptide Y receptor type 2 receptor expressed in CHO cells using Cy5-pNPY by flow cytometric analysis; assay type: cell-based
T4 sequence (P49146 whole entry): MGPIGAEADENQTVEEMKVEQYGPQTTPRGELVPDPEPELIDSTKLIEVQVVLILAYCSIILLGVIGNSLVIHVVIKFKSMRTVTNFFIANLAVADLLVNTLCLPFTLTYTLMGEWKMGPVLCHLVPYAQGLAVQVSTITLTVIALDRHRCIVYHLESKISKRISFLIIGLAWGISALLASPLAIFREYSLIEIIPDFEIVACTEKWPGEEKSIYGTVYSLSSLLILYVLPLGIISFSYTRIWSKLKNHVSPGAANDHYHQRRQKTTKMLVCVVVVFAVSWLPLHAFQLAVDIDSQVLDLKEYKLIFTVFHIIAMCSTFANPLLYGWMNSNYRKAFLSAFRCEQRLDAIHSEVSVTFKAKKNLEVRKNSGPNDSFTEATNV

[7] = target: T5, Neuropeptide Y receptor type 1 (Homo sapiens) (UniProt P25929); assay: Antagonist activity at neuropeptide Y receptor type 1 in HEL assessed as inhibition of pNPY-induced calcium mobilization by Fura-2 calcium assay; assay type: functional
T5 sequence (whole entry): T1 sequence (P25929 whole entry)

| SMILES | Ki [1] | Kb [2] | Ki [3] | Ki [4] | Ki [5] | Ki [6] | Kb [7] |
| --- | --- | --- | --- | --- | --- | --- | --- |
| CCC(=O)NCCN(CCNC(=O)c1ccc(C(=O)NCCOCCOCCNC(=O)/N=C(/N)NCCC[C@@H](NC(=O)C(c2ccccc2)c2ccccc2)C(=O)NCc2ccc(O)cc2)cc1)CCNC(=O)c1ccc(C(=O)NCCOCCOCCNC(=O)/N=C(/N)NCCC[C@@H](NC(=O)C(c2ccccc2)c2ccccc2)C(=O)NCc2ccc(O)cc2)cc1 | 110 nM | 36 nM | > 5000 nM | 410 nM | 64 nM | > 5000 nM |  |
| NCCN(CCNC(=O)CCC(=O)NCCOCCOCCNC(=O)/N=C(/N)NCCC[C@@H](NC(=O)C(c1ccccc1)c1ccccc1)C(=O)NCc1ccc(CNC(N)=O)cc1)CCNC(=O)CCC(=O)NCCOCCOCCNC(=O)/N=C(/N)NCCC[C@@H](NC(=O)C(c1ccccc1)c1ccccc1)C(=O)NCc1ccc(CNC(N)=O)cc1 | 210 nM | 96 nM | > 5000 nM | 290 nM | 230 nM | 4000 nM | 4.2 nM |
| N=C(N)NCCC[C@@H](NC(=O)C(c1ccccc1)c1ccccc1)C(=O)NCc1ccc(CNC(=O)NCCCCNC(=O)CCCC(=O)NCCN(CCN)CCNC(=O)CCCC(=O)NCCCCNC(=O)NCc2ccc(CNC(=O)[C@@H](CCCNC(=N)N)NC(=O)C(c3ccccc3)c3ccccc3)cc2)cc1 | 430 nM | > 5000 nM | > 5000 nM | 3500 nM | 330 nM | > 5000 nM | 120 nM |
| NCCN(CCNC(=O)c1ccc(C(=O)NCCOCCOCCNC(=O)/N=C(/N)NCCC[C@@H](NC(=O)C(c2ccccc2)c2ccccc2)C(=O)NCc2ccc(O)cc2)cc1)CCNC(=O)c1ccc(C(=O)NCCOCCOCCNC(=O)/N=C(/N)NCCC[C@@H](NC(=O)C(c2ccccc2)c2ccccc2)C(=O)NCc2ccc(O)cc2)cc1 | 48 nM | 20 nM | > 5000 nM | 130 nM |  |  | 0.25 nM |
| NCCN(CCNC(=O)CCC(=O)NCCCCCCNC(=O)/N=C(\N)NCCC[C@H](NC(=O)CC1(CC(=O)N2CCN(C3c4ccccc4NC(=O)c4ccccc43)CC2)CCCC1)C(=O)NCCn1c(=O)n(-c2ccccc2)n(-c2ccccc2)c1=O)CCNC(=O)CCC(=O)NCCCCCCNC(=O)/N=C(\N)NCCC[C@@H](NC(=O)C(c1ccccc1)c1ccccc1)C(=O)NCc1ccc(O)cc1 (mixture of isomers) | 260 nM | 72 nM | > 5000 nM | 910 nM | 230 nM | 85 nM | 1.5 nM |

The remaining lines, values ahead:

| Ki [1] | Kb [2] | Ki [3] | Ki [4] | Ki [5] | Ki [6] | Kb [7] | SMILES |
| --- | --- | --- | --- | --- | --- | --- | --- |
|  | > 5000 nM |  | > 5000 nM | > 5000 nM |  | > 5000 nM | NCCOCCOCCNC(=O)/N=C(/N)NCCC[C@H](NC(=O)C(c1ccccc1)c1ccccc1)C(=O)NCc1ccc(CNC(N)=O)cc1 |
|  | 140 nM | > 5000 nM | 310 nM | 3100 nM | 1100 nM | 110 nM | NCCN(CCNC(=O)CCC(=O)NCCOCCOCCNC(=O)/N=C(/N)NCCC[C@H](NC(=O)C(c1ccccc1)c1ccccc1)C(=O)NCc1ccc(CNC(N)=O)cc1)CCNC(=O)CCC(=O)NCCOCCOCCNC(=O)/N=C(/N)NCCC[C@H](NC(=O)C(c1ccccc1)c1ccccc1)C(=O)NCc1ccc(CNC(N)=O)cc1 |
|  | 73 nM | > 5000 nM | 390 nM | 30 nM | 620 nM | 4.2 nM | NCCN(CCNC(=O)CCCC(=O)/N=C(/N)NCCC[C@@H](NC(=O)C(c1ccccc1)c1ccccc1)C(=O)NCc1ccc(O)cc1)CCNC(=O)CCCC(=O)/N=C(/N)NCCC[C@@H](NC(=O)C(c1ccccc1)c1ccccc1)C(=O)NCc1ccc(O)cc1 |
| 50 nM | 44 nM | > 5000 nM | 290 nM | 29 nM | 1500 nM |  | NCCN(CCNC(=O)CCCC(=O)NCCOCCOCCNC(=O)/N=C(/N)NCCC[C@@H](NC(=O)C(c1ccccc1)c1ccccc1)C(=O)NCc1ccc(O)cc1)CCNC(=O)CCCC(=O)NCCOCCOCCNC(=O)/N=C(/N)NCCC[C@@H](NC(=O)C(c1ccccc1)c1ccccc1)C(=O)NCc1ccc(O)cc1 |
|  | 98 nM |  |  |  |  | 3.5 nM | N/C(=N/C(=O)CCCCCCC(=O)/N=C(\N)NCCC[C@@H](NC(=O)C(c1ccccc1)c1ccccc1)C(=O)NCc1ccc(O)cc1)NCCC[C@@H](NC(=O)C(c1ccccc1)c1ccccc1)C(=O)NCc1ccc(O)cc1 |
| 37 nM | 41 nM | > 5000 nM | 470 nM | 25 nM | 1800 nM | 1.1 nM | NCCN(CCNC(=O)CCC(=O)NCCOCCOCCNC(=O)/N=C(/N)NCCC[C@@H](NC(=O)C(c1ccccc1)c1ccccc1)C(=O)NCc1ccc(O)cc1)CCNC(=O)CCC(=O)NCCOCCOCCNC(=O)/N=C(/N)NCCC[C@@H](NC(=O)C(c1ccccc1)c1ccccc1)C(=O)NCc1ccc(O)cc1 |

From ChEMBL document CHEMBL2439953, “Dimeric argininamide-type neuropeptide Y receptor antagonists: chiral discrimination between Y1 and Y4 receptors” (Bioorg Med Chem, 2013)
